According to US12090147B2, “Combination therapy with 2-(4-chlorophenyl)-N-((2-(2,6-dioxopiperidin-3-yl)-1-oxoisoindolin-5-yl)methyl)-2,2-difluoroacetamide” (Celgene Corporation, priority 2019, dated 2024):

How the values were obtained:
[1] = system: ML-2 parental, caspase 1 and caspase 8 knock out cells; test: IL-1β in CRISPR/Cas9 caspase 1 or caspase 8 knock out cells (lysate and supernatant); type: cell-based, human; details: 1 μM Compound 1
Protocol: To further confirm if caspase 8 is necessary for Compound 1 induced IL-1β upregulation and/or release, knock out studies were performed. Caspase 1 or caspase 8 was knocked out by CRISPR/Cas9 in ML-2 cells, and the effect of Compound 1 on intracellular and secreted IL-1β levels was investigated. Parental, caspase 1 and caspase 8 knock out cells were treated with or without 1 μM Compound 1. IL-1β levels were analyzed 48 and 72 hours post-compound treatment in cell lysate and culture supernatant.

[2] = system: MOLM13 cell pair expressing wildtype GSPT1 or GSPT1 G575N; test: Isogenic cell pair, endogenous GSPT1 vs non-degradable GSPT1 G575N; type: cell-based, human; details: MOLM13 overexpressing GSPT1 G575N
Description: To further confirm if IL-1β induction is an on-target effect of GSPT1 degradation, intracellular pro-IL-1β and secreted IL-1βb levels in response to Compound 1 treatment were compared in an isogenic MOLM13 cell pair either expressing endogenous wildtype GSPT1 or overexpressing a non-degradable form of GSPT1 G575N.

[3] = system: bone marrow mononuclear cells (BMMC) from primary AML patients; test: Secreted IL-1β in primary bone marrow mononuclear cells ex vivo; type: cell-based, human
Protocol: For cytokine assays on primary AML and healthy bone marrow cells, cells were seeded at 0.2 million in 150 μL media per well of ultra-low attachment 96-well plate in duplicates. Cell culture media was collected 24 and 48 hours post-treatment with Compound 1 and/or LPS. Cells were pelleted, fixed in 1.6% PFA and froze down for flow cytometry analysis.
(§1) Normal PBMCs were purchased from AllCells (Cat No. PB006F). Primary AML BMMC in were purchased from Conversant (SKU ID: BBM1000-E1110036458110215SH) or Fidelis Research (AML55, AML57, AML73, AML74, AML76, AML79, AML80, AML81, AML84, AML95). Bone marrow from health donor was purchased from StemCell Technologies (Cat No. 70001.2).
Normal PBMCs were cultured in RPMI-1640 (ATCC Cat No. 30-2001) containing 20% fetal bovine serum (Corning Cat No. 35-010-CV). […]
IL-1α (Meso Scale Disgnostics, Cat No. K151RBD), IL-1β (Meso Scale Disgnostics, Cat No. K151QPD), IL-1RA (Meso Scale Disgnostics, Cat No. K151WTD), IL-18 (Meso Scale Disgnostics, Cat No. K151VJK), TNFa (Meso Scale Disgnostics, Cat No. K151QWD), VEGF Meso Scale Disgnostics, Cat No. K151RHD) levels were measured by (Meso Scale Disgnostics assay kits following manufacturer's instructions. Measurements were made on a MESO™ SECTOR S 600 plate reader (Meso Scale Disgnostics). […]

[4] = system: isogenic MV4-11 Cas9 cell pair (GCN2); test: Isogenic cell pair, wildtype GCN2 vs GCN2 deleted; type: cell-based, human
Description: ISR, especially via GCN2 pathway, is one of the key pathways contributed to GSPT1 mediated cell death. GCN2 knock down blocked ATF4 and CHOP induction by Compound 1, and suppressed caspase 3 and caspase 8 activation. GCN2 has been implicated in IL-1β production. GCN2 activation inhibit classical caspase 1 mediated inflammasome activation in intestinal cells and that GCN2 knock down in CD11c+ antigen presenting cells or intestinal epithelial cells leads to enhanced inflammasome activation and IL-1β production. (Ravindran et al. Nature. 2016, 531(7595):523-527). To understand if Compound 1 mediated IL-1β induction is downstream of GCN2 pathway, an isogenic MV4-11 Cas9 cell pair either expressing endogenous wildtype GCN2 or with the gene deleted was used. GCN2 knock down suppressed the induction of phosphor-eIF2a, ATF4, CHOP and cleaved caspase 8 by Compound 1 (FIG. 9A). […] These evidences pointed that pro-[…] up-regulation and secreted IL-1β induction are both downstream effects of GCN2 pathway activation, and distinct from the GCN2 mediated classical inflammasome pathway inhibition reported in gut cells (Ravindran et al. Nature. 2016, 531(7595):523-527).

[5] = system: Normal Peripheral Blood Mononuclear Cells; test: Cytokine induction, electrochemiluminescence assay of culture supernatant; type: cell-based, human; details: PBMC
Protocol: as §1
Normal PBMCs were cultured in RPMI-1640 (ATCC Cat No. 30-2001) containing 20% fetal bovine serum (Corning Cat No. 35-010-CV). Primary AML and bone marrows were cultured in Complete Medium Cytokines 1X: StemSpam™ Serum-Free Expansion Medium (StemCell Technologies Cat No. 09650) supplemented with 50 ng/mL Stem Cell Factor (Peprotech Cat No. 300-07), 50 ng/mL recombinant Human FLT3-Ligand (Peprotech Cat No. 300-19), 20 ng/mL recombinant human-interleukin-3 (Peprotech Cat No. 200-03), […] recombinant human-interleukin-6 (Peprotech Cat No. 200-06), 1 μM StemRegenin (StemCell Technologies Cat No. 72342), penicillin/streptomycin (Invitrogen Cat No. 15140122).
IL-1α (Meso Scale Disgnostics, Cat No. K151RBD), IL-1β (Meso Scale Disgnostics, Cat No. K151QPD), IL-1RA (Meso Scale Disgnostics, Cat No. K151WTD), IL-18 (Meso Scale Disgnostics, Cat No. K151VJK), TNFa (Meso Scale Disgnostics, Cat No. K151QWD), VEGF Meso Scale Disgnostics, Cat No. K151RHD) levels were measured by (Meso Scale Disgnostics assay kits following manufacturer's instructions. Measurements were made on a MESO™ SECTOR S 600 plate reader (Meso Scale Disgnostics).
Cell proliferation (CTG) and caspase 3/7 activation (IncuCyte) were analyzed using GraphPad Prism. Electrochemiluminescence data was analyzed using MSD Discovery Workbench platform.
The level of intracellular pro IL-1β and released IL-1β in eight AML cell lines and normal PBMC treated with a titration of Compound 1 over a 48 hour period was assessed. (see FIGS. 1A-1C, Table 2). Supernatant IL-1βb level was induced over 5 fold in 6 out of 8 AML cell lines and normal PBMC upon Compound 1 treatment compared to DMSO (FIGS. 1A, 1B, and 1C, Table 2).

[6] = pH 5

With `O=C1CCC(N2Cc3cc(CNC(=O)C(F)(F)c4ccc(Cl)cc4)ccc3C2=O)C(=O)N1` (stereo not shown) [Compound 1, 2-(4-chlorophenyl)-N-((2-(2,6-dioxopiperidin-3-yl)-1-oxoisoindolin-5-yl)methyl)-2,2-difluoroacetamide] as the molecule, how does the “Induction of IL-1β release” value ([1]; caspase 8 knock out ML-2 cells) read?
Its value is “compromised”.

And the Pro-IL-1β upregulation ([1]; caspase 8 knock out ML-2 cells)?
Its Pro-IL-1β upregulation is “remains intact”.

What about the “Pro-IL-1β upregulation and secreted IL-1β” value ([1]; parental and caspase 1 knock out ML-2 cells, 48 and 72 hours) of the same molecule?
The value was “Upregulation of pro-IL-13 and increased secreted IL-1β were evident”.

And the “Compound 1 mediated GSPT1 degradation, caspase 3 activation and viability loss” value [2]?
Its value is “complete resistance”.

And the “Pro-IL-1β, intracellular and supernatant IL-1β induction” value [2]?
The value was “completely blocked”.

And the “IL-1β in cell culture supernatant, FAB M0/M1/M2 AML BMMC” value ([3]; four M0/M1/M2 samples)?
Its value is “not able to induce IL-1β”.

And the “IL-1β in cell culture supernatant, FAB M4/M5 AML BMMC” value ([3]; two out of five M4/M5 samples, 24 and 48 hours post treatment)?
The value was “marked induction of IL-1β”.

And the “Induction of phosphor-eIF2a, ATF4, CHOP and cleaved caspase 8” value ([4]; GCN2 knock down)?
The value was “suppressed”.

And the “Intracellular and supernatant IL-1β induction” value ([4]; GCN2 knock out cells compared to parental cells)?
The value was “markedly suppressed”.

What about the Pro-IL-1β upregulation ([4]; absence of GCN2) of the same molecule?
Its Pro-IL-1β upregulation is “abolished”.

What about the IL-1β induction [5] of the same molecule?
Its IL-1β induction is 1.88.

What about the IL-18 induction [5] of the same molecule?
The IL-18 induction was 0.90.

What about the “Solution Stability” value [6] of the same molecule?
The value was “DS is not stable in solution at pH of 5.0 or above”.
